Experimental data reported in PMC2929268 (The Journal of organic chemistry, 2010).

What was measured:
hMC4R [1] = molecular target: T1, hMC4R (Homo sapiens, UniProt P32245); assay: Assay B: europium-based competitive binding assay with probe 18; details: over the range of concentrations tested
hMC4R [2] = molecular target: T1, hMC4R; assay: Assay A: europium-based competitive binding assay with probe 17; details: over the range of concentrations tested

T1 sequence (P32245 whole entry): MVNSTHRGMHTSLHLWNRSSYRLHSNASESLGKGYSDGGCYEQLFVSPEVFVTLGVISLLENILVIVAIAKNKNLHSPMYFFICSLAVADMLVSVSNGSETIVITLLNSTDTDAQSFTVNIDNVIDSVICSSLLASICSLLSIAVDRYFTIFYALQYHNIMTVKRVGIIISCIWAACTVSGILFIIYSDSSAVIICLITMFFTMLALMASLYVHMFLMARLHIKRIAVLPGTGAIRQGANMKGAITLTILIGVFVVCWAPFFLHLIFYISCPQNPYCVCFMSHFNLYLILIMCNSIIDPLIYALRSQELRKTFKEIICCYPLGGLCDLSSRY

blocking probe 18 from binding to hMC4R (hMC4R [1]): ineffective | blocking probe 17 from binding to hMC4R (hMC4R [2]): ineffective
Structure (SMILES): CCCCc1cn(CCCCCC(=O)NC(CO)C(N)=O)nn1 (centres unmarked) [Compound 11, N-(1-Amino-3-hydroxy-1-oxopropan-2-yl)-6-(4-butyl-1H-1,2,3-triazol-1-yl)hexanamide]
